Reference: ChEMBL document CHEMBL5390284, “Shikimate-Derived Meroterpenoids from the Ascidian-Derived Fungus Amphichorda felina SYSU-MS7908 and Their Anti-Glioma Activity” (J Nat Prod, 2023)
The source made the active and inactive calls. The calls are words filed in the database; no cut-off is given here.

How the values were obtained:
U-87 MG [1] = experiment: Antiproliferative activity against human U-87 MG cells assessed as inhibition of cell growth at 100 uM incubated for 48 hrs by MTT assay; format: functional, U-87MG ATCC; design: scale not given: the % may be the effect or the level left
T98G [2] = experiment: Induction of apoptosis in human T98G cells assessed as early apoptotic cells at 5 uM incubated for 48 hrs by Annexin V-FITC/PI staining based flow cytometry analysis (reference value: 2.7 +/- 0.5 %); format: functional
U-87 MG [3] = experiment: Induction of apoptosis in human U-87 MG cells assessed as early apoptotic cells at 10 uM incubated for 48 hrs by Annexin V-FITC/PI staining based flow cytometry analysis (reference value: 1.1 +/- 0.6 %); format: functional, U-87MG ATCC
U-251 [4] = experiment: Induction of apoptosis in human U-251 cells assessed as early apoptotic cells at 10 uM incubated for 48 hrs by Annexin V-FITC/PI staining based flow cytometry analysis (reference value: 1.5 +/- 0.4 %); format: functional
U-87 MG [5] = experiment: Induction of apoptosis in human U-87 MG cells assessed as total apoptotic cells at 2 uM incubated for 48 hrs by Annexin V-FITC/PI staining based flow cytometry analysis (reference value: 16 +/- 1%); format: functional, U-87MG ATCC
U-251 [6] = experiment: Induction of apoptosis in human U-251 cells assessed as total apoptotic cells at 10 uM incubated for 48 hrs by Annexin V-FITC/PI staining based flow cytometry analysis (reference value: 2.8 +/- 0.3%); format: functional
U-251 [7] = experiment: Antiproliferative activity against human U-251 cells assessed as inhibition of cell growth at 100 uM incubated for 48 hrs by MTT assay; format: functional; design: scale not given: the % may be the effect or the level left
U-87 MG [8] = experiment: Induction of apoptosis in human U-87 MG cells assessed as early apoptotic cells at 2 uM incubated for 48 hrs by Annexin V-FITC/PI staining based flow cytometry analysis (reference value: 1.1 +/- 0.6 %); format: functional, U-87MG ATCC
T98G [9] = experiment: Antiproliferative activity against human T98G cells assessed as inhibition of cell growth incubated for 48 hrs by MTT assay; format: functional, cell-based
U-87 MG [10] = experiment: Inhibition of cell migration in human U-87 MG cells incubated for 48 hrs by inverted optical microscope based wound healing assay; format: functional; settings: U-87MG ATCC
U-251 [11] = experiment: Inhibition of cell migration in human U-251 cells incubated for 48 hrs by inverted optical microscope based wound healing assay; format: functional
T98G [12] = experiment: Induction of apoptosis in human T98G cells assessed as late apoptotic cells at 10 uM incubated for 48 hrs by Annexin V-FITC/PI staining based flow cytometry analysis (reference value: 3.7 +/- 0.3 %); format: functional
T98G [13] = experiment: Induction of apoptosis in human T98G cells assessed as early apoptotic cells at 2 uM incubated for 48 hrs by Annexin V-FITC/PI staining based flow cytometry analysis (reference value: 2.7 +/- 0.5 %); format: functional
U-87 MG [14] = experiment: Induction of apoptosis in human U-87 MG cells assessed as late apoptotic cells at 2 uM incubated for 48 hrs by Annexin V-FITC/PI staining based flow cytometry analysis (reference value: 11 +/- 1%); format: functional, U-87MG ATCC
U-251 [15] = experiment: Induction of apoptosis in human U-251 cells assessed as late apoptotic cells at 10 uM incubated for 48 hrs by Annexin V-FITC/PI staining based flow cytometry analysis (reference value: 1.3 +/- 0.6%); format: functional
U-87 MG [16] = experiment: Induction of apoptosis in human U-87 MG cells assessed as total apoptotic cells at 10 uM incubated for 48 hrs by Annexin V-FITC/PI staining based flow cytometry analysis (reference value: 16 +/- 1%); format: functional, U-87MG ATCC
T98G [17] = experiment: Induction of apoptosis in human T98G cells assessed as late apoptotic cells at 2 uM incubated for 48 hrs by Annexin V-FITC/PI staining based flow cytometry analysis (reference value: 3.7 +/- 0.3 %); format: functional
U-251 [18] = experiment: Induction of apoptosis in human U-251 cells assessed as total apoptotic cells at 2 uM incubated for 48 hrs by Annexin V-FITC/PI staining based flow cytometry analysis (reference value: 2.8 +/- 0.3%); format: functional
T98G [19] = experiment: Induction of apoptosis in human T98G cells assessed as total apoptotic cells at 5 uM incubated for 48 hrs by Annexin V-FITC/PI staining based flow cytometry analysis (reference value: 6.4 +/- 0.8 %); format: functional
U-251 [20] = experiment: Antiproliferative activity against human U-251 cells assessed as inhibition of cell growth incubated for 48 hrs by MTT assay; format: functional, cell-based; settings: U-251, 48 h
U-251 [21] = experiment: Induction of apoptosis in human U-251 cells assessed as late apoptotic cells at 2 uM incubated for 48 hrs by Annexin V-FITC/PI staining based flow cytometry analysis (reference value: 1.3 +/- 0.6%); format: functional
U-87 MG [22] = experiment: Induction of apoptosis in human U-87 MG cells assessed as total apoptotic cells at 5 uM incubated for 48 hrs by Annexin V-FITC/PI staining based flow cytometry analysis (reference value: 16 +/- 1%); format: functional, U-87MG ATCC
T98G [23] = experiment: Inhibition of cell migration in human T98G cells incubated for 48 hrs by inverted optical microscope based wound healing assay; format: functional
U-87 MG [24] = experiment: Antiproliferative activity against human U-87 MG cells assessed as inhibition of cell growth incubated for 48 hrs by MTT assay; format: functional, cell-based, U-87MG ATCC
U-251 [25] = experiment: Inhibition of cell invasion in human U-251 cells at 5 to 10 uM incubated for 48 hrs by crystal violet staining based fluorescent microscope analysis; format: functional; settings: dose 5-10 µM
U-251 [26] = experiment: Induction of apoptosis in human U-251 cells assessed as late apoptotic cells at 5 uM incubated for 48 hrs by Annexin V-FITC/PI staining based flow cytometry analysis (reference value: 1.3 +/- 0.6%); format: functional
U-251 [27] = experiment: Induction of apoptosis in human U-251 cells assessed as early apoptotic cells at 5 uM incubated for 48 hrs by Annexin V-FITC/PI staining based flow cytometry analysis (reference value: 1.5 +/- 0.4 %); format: functional
T98G [28] = experiment: Induction of apoptosis in human T98G cells assessed as early apoptotic cells at 10 uM incubated for 48 hrs by Annexin V-FITC/PI staining based flow cytometry analysis (reference value: 2.7 +/- 0.5 %); format: functional
U-87 MG [29] = experiment: Inhibition of cell invasion in human U-87 MG cells at 5 to 10 uM incubated for 48 hrs by crystal violet staining based fluorescent microscope analysis; format: functional; settings: U-87MG ATCC, dose 5-10 µM
U-87 MG [30] = experiment: Induction of apoptosis in human U-87 MG cells assessed as late apoptotic cells at 10 uM incubated for 48 hrs by Annexin V-FITC/PI staining based flow cytometry analysis (reference value: 11 +/- 1%); format: functional, U-87MG ATCC
T98G [31] = experiment: Inhibition of cell invasion in human T98G cells at 5 to 10 uM incubated for 48 hrs by crystal violet staining based fluorescent microscope analysis; format: functional; settings: dose 5-10 µM
U-87 MG [32] = experiment: Induction of apoptosis in human U-87 MG cells assessed as early apoptotic cells at 5 uM incubated for 48 hrs by Annexin V-FITC/PI staining based flow cytometry analysis (reference value: 1.1 +/- 0.6 %); format: functional, U-87MG ATCC
T98G [33] = experiment: Induction of apoptosis in human T98G cells assessed as late apoptotic cells at 5 uM incubated for 48 hrs by Annexin V-FITC/PI staining based flow cytometry analysis (reference value: 3.7 +/- 0.3 %); format: functional
U-251 [34] = experiment: Induction of apoptosis in human U-251 cells assessed as early apoptotic cells at 2 uM incubated for 48 hrs by Annexin V-FITC/PI staining based flow cytometry analysis (reference value: 1.5 +/- 0.4 %); format: functional
U-251 [35] = experiment: Induction of apoptosis in human U-251 cells assessed as total apoptotic cells at 5 uM incubated for 48 hrs by Annexin V-FITC/PI staining based flow cytometry analysis (reference value: 2.8 +/- 0.3%); format: functional
T98G [36] = experiment: Induction of apoptosis in human T98G cells assessed as total apoptotic cells at 2 uM incubated for 48 hrs by Annexin V-FITC/PI staining based flow cytometry analysis (reference value: 6.4 +/- 0.8 %); format: functional
U-87 MG [37] = experiment: Induction of apoptosis in human U-87 MG cells assessed as late apoptotic cells at 5 uM incubated for 48 hrs by Annexin V-FITC/PI staining based flow cytometry analysis (reference value: 11 +/- 1%); format: functional, U-87MG ATCC
T98G [38] = experiment: Induction of apoptosis in human T98G cells assessed as total apoptotic cells at 10 uM incubated for 48 hrs by Annexin V-FITC/PI staining based flow cytometry analysis (reference value: 6.4 +/- 0.8 %); format: functional
T98G [39] = experiment: Antiproliferative activity against human T98G cells assessed as inhibition of cell growth at 100 uM incubated for 48 hrs by MTT assay; format: functional, cell-based

For `C=C(C)C#C[C@]12O[C@H]1[C@@H]1OC(C)(C)[C@H](OC(C)=O)C[C@@]13O[C@H]3C2=O`, the Activity (U-87 MG [1]) was over 50%, the Activity (T98G [2]) was 2.6% and the Activity (U-87 MG [3]) was 17%. It also gave an Activity (U-251 [4]) of 5%, an Activity (U-87 MG [5]) of 22% and an Activity (U-251 [6]) of 10%. It also gave an Activity (U-251 [7]) of over 50%, an Activity (U-87 MG [8]) of 3.6% and an IC50 (T98G [9]) of 13 µM. For the same molecule, the inhibition (U-87 MG [10]) was “Dose-Dependent Effect”, the inhibition (U-251 [11]) was “Dose-Dependent Effect” and the Activity (T98G [12]) was 6.5%. It also gave an Activity (T98G [13]) of 1.5%, an Activity (U-87 MG [14]) of 18% and an Activity (U-251 [15]) of 5.4%. For the same molecule, the Activity (U-87 MG [16]) was 84%, the Activity (T98G [17]) was 4.1% and the Activity (U-251 [18]) was 3.2%. The Activity (T98G [19]) was 7.7%, the IC50 (U-251 [20]) was 20 µM and the Activity (U-251 [21]) was 2%. The Activity (U-87 MG [22]) was 30%, the inhibition (T98G [23]) was “Dose-Dependent Effect” and the IC50 (U-87 MG [24]) was 6.8 µM. For the same molecule, the inhibition (U-251 [25]) was “Active”, the Activity (U-251 [26]) was 6% and the Activity (U-251 [27]) was 3.1%. The Activity (T98G [28]) was 4.8%, the inhibition (U-87 MG [29]) was “Active” and the Activity (U-87 MG [30]) was 67%. For the same molecule, the inhibition (T98G [31]) was “Active”, the Activity (U-87 MG [32]) was 16% and the Activity (T98G [33]) was 5.1%. It also gave an Activity (U-251 [34]) of 1.2%, an Activity (U-251 [35]) of 9% and an Activity (T98G [36]) of 5.6%. For the same molecule, the Activity (U-87 MG [37]) was 14% and the Activity (T98G [38]) was 11%.

In the case of `CC(=O)O[C@@H]1C[C@]23O[C@H]2C2=C(C(=O)CC(C)(C)O2)[C@@H](O)[C@@H]3OC1(C)C`, the Activity (U-87 MG [1]; U-87MG ATCC) is reported as “inactive”, the Activity (U-251 [7]) is reported as “inactive” and the Activity (T98G [39]) is reported as “inactive”.

For `C=C(C)C#C[C@]12O[C@H]1[C@@H]1OC(C)(C)[C@H](OC(C)=O)C[C@@]13O[C@H]3[C@@H]2OC(C)=O`, the Activity (U-87 MG [1]) was over 50% and the Activity (U-251 [7]) was over 50%.

For `CC1(C)CC(=O)c2cc3c(c(Cl)c2O1)C[C@@H](O)C(C)(C)O3`, the Activity (U-87 MG [1]; U-87MG ATCC) was “inactive”, the Activity (U-251 [7]) was “inactive” and the Activity (T98G [39]) was “inactive”.

In the case of `CC(=O)O[C@@H]1Cc2c(cc3c(c2O)OC(C)(C)CC3=O)OC1(C)C`, the Activity (U-87 MG [1]; U-87MG ATCC) is reported as “inactive”, the Activity (U-251 [7]) is reported as “inactive” and the Activity (T98G [39]) is reported as “inactive”.
